Source: patent US12584098B2, “In-vitro model of the human gut microbiome and uses thereof in the analysis of the impact of xenobiotics” (EUROPEAN MOLECULAR BIOLOGY LABORATORY, priority 2018, dated 2026)
Like-named read-outs stand apart in the source and are kept apart here.

How the values were obtained:
gut bacterial strains = assay: Testing for anticommensal activity at higher concentrations (validation of side effect-based predictions); type: cell-based
Protocol: Compounds of interest were purchased from independent sources and if possible, dissolved at 5 mM concentration in mGAM. Lower concentrations were used when solubility limit was reached. Solutions were sterile filtered, and three 4-fold serial dilutions were arranged in 96 well plates, aiming at covering a broad range of drug concentrations. Inoculation and growth curve acquisition was performed as described for the MIC determination experiments.

E. coli IAI1 = details: 50 μM drug
Protocol: (§2) For all drugs, a fixed concentration of 50 µM was used, which in most cases approximates the concentration of one pill (0.02-3 mmol) diluted in the volume of the gut (approx. 2.5 L). One bacteria-free control per plate and drug, but triplicates for each bacteria-drug interaction was screened. The screen was carried out under anaerobic conditions in 96-well plates (NUNCLON Delta Surface 163320, NUNC) with 150 μl GMM as the growth medium sealed with a Breathe-Easy® sealing membrane (Z380059, SIGMA-ALDRICH). Plates containing 100 μl of the medium and 75 μM of the drug were prepared beforehand, stored at −20° C. and used as needed. Frozen plates were introduced into the anaerobic chamber the evening before inoculation. Wells were inoculated with 50 μl of a second passage culture with an end OD578 of 0.01. Growth was monitored with measurements of the optical density at 578 nm using an Eon Microplate Spectrophotometer (BIOTEK) approximately every 2 h for the first 10 h, then approximately every 6 h. After 48 h, plates were removed from the anaerobic chamber and the bacteria spinned down (4000 rpm, 10 min). […] All liquid handling outside of anaerobic chamber was done using a liquid handling robot (FXp, BIOMEK). […] The bacteria-drug interaction screen was conducted with two biological replicates.

C. saccharolyticum = details: 50 μM drug
Protocol: as §2

25 gut bacterial strains [1] = assay: Bacteria-drug interaction screen: drug depletion from supernatant (UV-UPLC); details: 50 μM drug, 48 h anaerobic growth
Protocol: (§1) All liquid chromatography methods are run on a Waters Acquity UPLC H-Class instrument with a PDA detector and a quaternary solvent system. All established methods are 5 minutes long, have a flow rate of 0.5 ml/min and run on a CSH C18 column (Waters, Part number 186005297) in reverse mode. The column is heated to 40° C. and samples are kept at 6° C. All methods use 50% acetonitrile (Biosolve, ULC grade) for washing buffer, and 50% methanol (Biosolve, ULC grade) for purging buffer. As organic mobile phase acetonitrile was used. The assay was optimized using only two buffers besides water as hydrophilic mobile phase: 5 mM formic acid (Biosolve, ULC grade) of pH 3.2 and 5 mM ammonium formate (Ammonium hydroxide, ACS grade, Sigma) with pH adjusted to 8.3 using the formic acid buffer.
For all drugs, a fixed concentration of 50 µM was used, which in most cases approximates the concentration of one pill (0.02-3 mmol) diluted in the volume of the gut (approx. 2.5 L). One bacteria-free control per plate and drug, but triplicates for each bacteria-drug interaction was screened. […] Growth was monitored with measurements of the optical density at 578 nm using an Eon Microplate Spectrophotometer (BIOTEK) approximately every 2 h for the first 10 h, then approximately every 6 h. […]

[2] = test system: gut bacterial strains (hits of the interaction screen); assay: Depletion-mode assay: supernatant vs total extraction; details: 50 μM drug, 48 h, GMM
Protocol: If the drug is only depleted in the supernatant, the drug is likely a bioaccumulated, whereas if the drug is also depleted in the extraction of the total fraction a biodegradation is likely.
as §1
Bacteria from second passage culture are inoculated with an OD578 of 0.01 in 1 mL GMM containing 50 μM drug of interest in 2 mL eppendorf tubes and incubated for 48 h while shaking. After finishing growth, the cultures were removed from the anaerobic chamber. […]

[3] = cited from earlier work
25 gut bacterial strains [4] = assay: Growth effect (OD578) in the bacteria-drug interaction screen; type: cell-based, human gut bacteria; details: 50 μM drug, 25 strains
Protocol: as §2

## CN(C)C(=N)N=C(N)N [Metformin]
Gut bacterial strains
  anticommensal activity at concentrations higher than the 20 μM of the screen: verified

## CNCC[C@H](Oc1cccc2ccccc12)c1cccs1 [duloxetine]
E. coli IAI1
  effect on growth of E. coli IAI1: inhibiting growth
C. saccharolyticum
  effect on growth of C. saccharolyticum: inhibiting growth

## O=C1[C@H](CC[C@H](O)c2ccc(F)cc2)[C@@H](c2ccc(O)cc2)N1c1ccc(F)cc1 [ezetimibe]
25 gut bacterial strains [1]
  depletion of drug from the medium by bacterial strains (in words): interacting only with a few bacterial strains

## CC(C)(O)c1ccccc1CC[C@@H](SCC1(CC(=O)O)CC1)c1cccc(/C=C/c2ccc3ccc(Cl)cc3n2)c1 [montelukast]
[2]
  predominant mode of depletion: bioaccumulation
[2]; supernatant vs total extraction
  depletion mode: bioaccumulation or biodegradation (in words): bioaccumulated and then partially degraded by several bacterial strains

## CC[C@@H]([C@H](C)O)n1ncn(-c2ccc(N3CCN(c4ccc(OC[C@@H]5CO[C@@](Cn6cncn6)(c6ccc(F)cc6F)C5)cc4)CC3)cc2)c1=O [posaconazole]
[3]; 40 mg (57 μmol) delivered to the stomach in acidic solution
  maximum concentration in the duodenum: 26.3 ± 10.3 µM
[3]; 40 mg (57 μmol) delivered to the stomach in neutral solution
  maximum concentration in the duodenum: 13.6 ± 5.8 µM

## C[C@H](Cn1cnc2c(N)ncnc21)OCP(=O)(O)O [tenofovir]
25 gut bacterial strains [1]
  depletion of drug from the medium by bacterial strains (in words): neither being depleted
25 gut bacterial strains [4]
  effect on bacterial growth in the screen: nor affecting bacterial growth
